Source: doi:10.1101/2025.06.07.658027v2 (biorxiv, 2025)

Legend:
Test in all cases: two-electrode voltage clamp, Xenopus oocytes
Format in all cases: cell-based
AalbOR10 = target: T1, AalbOR10 (Aedes albopictus, UniProt A0ABM1Y0Z3)
T1 sequence (A0ABM1Y0Z3 1-403): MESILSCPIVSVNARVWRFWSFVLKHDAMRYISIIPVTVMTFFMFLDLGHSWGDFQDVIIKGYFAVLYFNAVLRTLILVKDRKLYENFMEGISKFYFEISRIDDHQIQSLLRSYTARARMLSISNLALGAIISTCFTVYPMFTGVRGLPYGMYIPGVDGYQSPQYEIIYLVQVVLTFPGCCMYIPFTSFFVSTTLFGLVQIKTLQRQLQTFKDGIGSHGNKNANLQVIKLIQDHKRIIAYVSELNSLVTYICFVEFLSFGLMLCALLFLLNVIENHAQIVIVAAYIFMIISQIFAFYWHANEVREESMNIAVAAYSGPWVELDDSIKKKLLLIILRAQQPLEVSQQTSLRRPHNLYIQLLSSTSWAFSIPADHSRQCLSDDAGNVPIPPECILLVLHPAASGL
T1 sequence (A0ABM1ZN50 1-479 partner): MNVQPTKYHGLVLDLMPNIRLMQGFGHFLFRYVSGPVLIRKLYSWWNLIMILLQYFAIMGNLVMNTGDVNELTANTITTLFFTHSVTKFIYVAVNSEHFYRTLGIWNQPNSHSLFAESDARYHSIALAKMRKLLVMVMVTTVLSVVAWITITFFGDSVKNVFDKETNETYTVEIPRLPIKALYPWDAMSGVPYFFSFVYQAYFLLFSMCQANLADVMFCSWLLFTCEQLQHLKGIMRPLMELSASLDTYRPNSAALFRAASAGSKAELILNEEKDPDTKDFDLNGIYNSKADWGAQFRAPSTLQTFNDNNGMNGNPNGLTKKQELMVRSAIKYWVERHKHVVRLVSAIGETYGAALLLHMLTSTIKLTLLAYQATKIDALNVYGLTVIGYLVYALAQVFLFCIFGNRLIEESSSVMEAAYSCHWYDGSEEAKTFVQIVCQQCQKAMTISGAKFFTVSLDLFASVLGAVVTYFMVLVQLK

AalbOR2 = target: T2, AalbOR2 (Aedes albopictus, UniProt A0ABM1YVB6)
T2 sequence (A0ABM1YVB6 1-376): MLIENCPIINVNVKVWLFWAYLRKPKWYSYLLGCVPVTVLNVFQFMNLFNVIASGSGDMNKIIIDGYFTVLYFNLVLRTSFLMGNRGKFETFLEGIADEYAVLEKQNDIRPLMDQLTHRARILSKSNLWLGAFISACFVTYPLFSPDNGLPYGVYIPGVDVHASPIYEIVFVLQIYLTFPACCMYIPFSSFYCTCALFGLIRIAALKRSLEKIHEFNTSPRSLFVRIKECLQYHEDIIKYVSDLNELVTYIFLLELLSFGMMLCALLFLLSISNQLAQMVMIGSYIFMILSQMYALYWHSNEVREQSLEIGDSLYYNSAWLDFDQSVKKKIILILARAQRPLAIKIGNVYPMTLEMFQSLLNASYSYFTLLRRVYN
T2 sequence (A0ABM1ZN50 1-479 partner): T1 sequence (A0ABM1ZN50 1-479 partner)

AalbOR9 = target: T3, AalbOR9 (Aedes albopictus, UniProt A0ABM1YMM4)
T3 sequence (A0ABM1YMM4 1-377): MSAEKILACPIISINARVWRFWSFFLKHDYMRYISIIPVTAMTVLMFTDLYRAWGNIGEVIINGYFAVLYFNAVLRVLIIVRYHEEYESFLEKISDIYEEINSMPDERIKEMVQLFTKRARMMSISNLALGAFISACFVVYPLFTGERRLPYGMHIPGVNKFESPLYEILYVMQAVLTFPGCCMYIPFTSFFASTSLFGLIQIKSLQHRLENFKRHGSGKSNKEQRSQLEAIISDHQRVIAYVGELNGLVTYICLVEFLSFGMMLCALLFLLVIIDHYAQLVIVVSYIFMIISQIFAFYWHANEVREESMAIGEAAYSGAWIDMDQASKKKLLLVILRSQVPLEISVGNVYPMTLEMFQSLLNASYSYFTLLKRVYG
T3 sequence (A0ABM1ZN50 1-479 partner): T1 sequence (A0ABM1ZN50 1-479 partner)

| SMILES | EC50 (AalbOR10) | EC50 (AalbOR2) | EC50 (AalbOR9) |
| --- | --- | --- | --- |
| c1ccc2[nH]ccc2c1 [indole] | 23.7 µM | 0.77 µM | 1.7 µM |
| Cc1c[nH]c2ccccc12 [skatole] | 3.9 µM | 10.1 µM | 0.054 µM |
